Assay results: the NIST ThermoML archive (doi:10.1021/je060271a)
Values joined by “and” are separate entries in the source; they are usually repeats but may differ in a detail not shown here. Equal entries are not always repeated.

Conditions: 283.15 K, Liquid, Vibrating tube method

CCCCCC(=O)OCC(COC(=O)CCCCC)(COC(=O)CCCCC)COC(=O)CCCCC [pentaerythritol tetrahexanoate]
Conditions	mass density
10919 kPa	1010.4 kg/m3
10934 kPa	1010.4 kg/m3
10949 kPa	1010.4 kg/m3
10966 kPa	1010.5 kg/m3
10983 kPa	1010.4 kg/m3
10998 kPa	1010.5 kg/m3
11013 kPa	1010.5 kg/m3
11028 kPa	1010.6 kg/m3
11046 kPa	1010.5 kg/m3
11060 kPa	1010.6 kg/m3
11075 kPa	1010.4 kg/m3
11093 kPa	1010.5 kg/m3
11108 kPa	1010.6 kg/m3
11126 kPa	1010.6 kg/m3
11141 kPa	1010.5 kg/m3
11157 kPa	1010.6 kg/m3
11173 kPa	1010.6 kg/m3
11191 kPa	1010.5 kg/m3
11206 kPa	1010.6 kg/m3
11221 kPa	1010.5 kg/m3
11237 kPa	1010.6 kg/m3
11256 kPa	1010.5 kg/m3
11271 kPa	1010.6 kg/m3
11289 kPa	1010.8 kg/m3
11304 kPa	1010.6 kg/m3
11320 kPa	1010.7 kg/m3
11339 kPa	1010.7 kg/m3
11355 kPa	1010.7 kg/m3
11370 kPa	1010.6 kg/m3
11387 kPa	1010.7 kg/m3
11406 kPa	1010.7 kg/m3
11422 kPa	1010.7 kg/m3
11438 kPa	1010.7 kg/m3
11457 kPa	1010.8 kg/m3
11473 kPa	1010.8 kg/m3
11492 kPa	1010.7 kg/m3
11508 kPa	1010.8 kg/m3
11524 kPa	1010.8 kg/m3
11541 kPa	1010.7 kg/m3
11560 kPa	1010.8 kg/m3
11577 kPa	1010.7 kg/m3
11593 kPa	1010.8 kg/m3
11613 kPa	1010.9 kg/m3
11630 kPa	1010.7 kg/m3
11649 kPa	1010.9 kg/m3
11682 kPa	1010.8 kg/m3
11753 kPa	1010.9 kg/m3
11773 kPa	1011 kg/m3
11790 kPa	1010.9 kg/m3
11807 kPa	1010.8 kg/m3
11828 kPa	1011 kg/m3
11844 kPa	1010.9 kg/m3
11862 kPa	1010.9 kg/m3
11899 kPa	1011 kg/m3
11916 kPa	1011 kg/m3
11936 kPa	1011.1 kg/m3
11954 kPa	1010.9 kg/m3
11971 kPa	1011 kg/m3
11988 kPa	1011.1 kg/m3
12009 kPa	1011 kg/m3
12027 kPa	1011 kg/m3
12044 kPa	1011 kg/m3
12062 kPa	1011.2 kg/m3
12082 kPa	1011.1 kg/m3
12099 kPa	1011.2 kg/m3
12119 kPa	1011.2 kg/m3
12137 kPa	1011.1 kg/m3
12154 kPa	1011.1 kg/m3
12171 kPa	1011 kg/m3
12192 kPa	1011.2 kg/m3
12209 kPa	1011.1 kg/m3
12231 kPa	1011.3 kg/m3
12249 kPa	1011.2 kg/m3
12267 kPa	1011.2 kg/m3
12290 kPa	1011.1 kg/m3
12309 kPa	1011.2 kg/m3
12310 kPa	1011.2 kg/m3
12311 kPa	1011.2 kg/m3
12312 kPa	1011.2 kg/m3 and 1011.4 kg/m3
12313 kPa	1011.1 kg/m3
12314 kPa	1011.2 kg/m3 and 1011.3 kg/m3
12315 kPa	1011.3 kg/m3
12316 kPa	1011.2 kg/m3
12317 kPa	1011.2 kg/m3
12318 kPa	1011.3 kg/m3 and 1011.2 kg/m3
12319 kPa	1011.4 kg/m3 and 1011.1 kg/m3
12320 kPa	1011.3 kg/m3 and 1011.2 kg/m3
12321 kPa	1011.2 kg/m3
12322 kPa	1011.3 kg/m3 and 1011.2 kg/m3
12323 kPa	1011.3 kg/m3 and 1011.2 kg/m3
12324 kPa	1011.3 kg/m3
12325 kPa	1011.2 kg/m3 and 1011.3 kg/m3
12326 kPa	1011.2 kg/m3 and 1011 kg/m3
12327 kPa	1011.3 kg/m3
12328 kPa	1011.2 kg/m3
12332 kPa	1011.3 kg/m3
12334 kPa	1011.3 kg/m3
12336 kPa	1011.3 kg/m3
12339 kPa	1011.4 kg/m3
12343 kPa	1011.3 kg/m3 and 1011.2 kg/m3
12348 kPa	1011.2 kg/m3
12351 kPa	1011.1 kg/m3
12354 kPa	1011.4 kg/m3
12356 kPa	1011.2 kg/m3
12359 kPa	1011.2 kg/m3
12362 kPa	1011.3 kg/m3
12363 kPa	1011.2 kg/m3
12364 kPa	1011.3 kg/m3
12366 kPa	1011.3 kg/m3
12380 kPa	1011.2 kg/m3
12399 kPa	1011.3 kg/m3
12414 kPa	1011.3 kg/m3
12431 kPa	1011.3 kg/m3
12446 kPa	1011.2 kg/m3
12461 kPa	1011.2 kg/m3
12476 kPa	1011.4 kg/m3
12494 kPa	1011.4 kg/m3
12509 kPa	1011.3 kg/m3
12527 kPa	1011.3 kg/m3
12543 kPa	1011.3 kg/m3
12558 kPa	1011.3 kg/m3
12577 kPa	1011.3 kg/m3
12592 kPa	1011.4 kg/m3
12607 kPa	1011.5 kg/m3
12622 kPa	1011.2 kg/m3
12640 kPa	1011.4 kg/m3
12656 kPa	1011.5 kg/m3
12674 kPa	1011.4 kg/m3
12689 kPa	1011.3 kg/m3
12705 kPa	1011.5 kg/m3
12723 kPa	1011.3 kg/m3
12738 kPa	1011.5 kg/m3
12754 kPa	1011.5 kg/m3
12768 kPa	1011.5 kg/m3
12786 kPa	1011.4 kg/m3
12800 kPa	1011.5 kg/m3
12814 kPa	1011.5 kg/m3
12831 kPa	1011.5 kg/m3
12845 kPa	1011.5 kg/m3
12862 kPa	1011.5 kg/m3
12875 kPa	1011.5 kg/m3
12889 kPa	1011.5 kg/m3
12903 kPa	1011.5 kg/m3
12919 kPa	1011.4 kg/m3
12933 kPa	1011.6 kg/m3
